The record followed here is patent US6943195B2, “Cycloalkenone derivative” (Nikken Chemicals Co., Ltd, priority 2001, dated 2005).

Assay [1] deals with Type IV PDE. Nature of the assay: PDE IV inhibitory activity (Test Example 1). The assay is classed as biochemical, rat. The following applies: PDE IV versus PDE III, compared with the racemate. How it is done: (§1) To investigate the PDE inhibitory activity and selectivity of the compound, Type I, Type III, Type IV and Type V, that is, four types of PDE isozymes were prepared Trends Pharmacol. Sci. (TiPS), vol. 12, 19-27(1991). The Type I PDE used was one purchased from Sigma. Further, the Type III, Type IV and Type V PDE isozymes used were those partially purified from the blood platelets (Type III and Type V) or neutrophils (Type IV) taken from rats. Each enzyme source was homogenized in a buffer (pH6.5) containing 20 mM Bis-Tris, EDTA (ethylene diamine tetraacetate) 2 mM, PMSF (phenylmethylsulfonyl fluoride) 0.1 mM, 2-mercaptoethanol 5 mM, pepstatin 0.001 mM, and leupeptin 0.01 mM and centrifuged at 30000×G for 30 minutes. The centrifuged supernatent was passed through an ion exchange column (Q Sepharose Fast Flow, made by Pharmacia) and eluted by 0-1M sodium acetate. The partially purified isozyme was identified by investigating the effects of known selective inhibitors.
(§2) The tested compound was dissolved in DMSO (dimethylsulfoxide) and added to 50 mM tris-HCl buffer containing 5 mM […]. To this reaction solution, the above PDE isozyme and ^3H-cAMP (when Type III or Type IV of PDE) or ^3H-cGMP (when Type I or Type V of PDE) was added, as a substrate, and the mixture reacted at 30° C. for 30 minutes. After the reaction, the reaction mixture was placed in a 100° C. boiling solution for 5 minutes to stop the reaction. The nucleotide produced by the PDE was decomposed by 5′-nucleotidase into ^3H-adenosine or ^3H-guanosine. The unreacted substrate and reaction product were passed through an ion exchange column (QAE Sephadex, made by Pharmacia)to separate them. The radioactivity of the eluted ^3H-nucleoside was measured by a liquid sintillation counter. The inhibitory activity of each tested compound was indicated by the IC50 value (μM). The inhibitory activity against Type IV was shown in Table 2, while the inhibitory activity against Type III was shown in Table 3. Further, the inhibitory activity of each test compound to Type I and Type V was less than 1/10 to Type IV.

The subject of assay [2] is T1, Type IV PDE.
T1 construct: PDE IV partially purified from rat neutrophils, 3H-cAMP substrat; PDE IV from rat neutrophils, 3H-cAMP substrate; other: ratio to racemate
The assay can be described thus: PDE IV inhibitory activity (Test Example 1). The assay is classed as biochemical, rat. The following applies: for pIC50: 3H-cAMP substrate; for PDE IV inhibitory activity relative to that of the racemate: ratio to racemate. How it is done: as §1, §2

For another assay, the target named is T2, Type III PDE (Rattus norvegicus, UniProt Q62865).
T2 construct: from tissue; host or cells: rat blood platelets
T2 sequence (Q62865 1-1141): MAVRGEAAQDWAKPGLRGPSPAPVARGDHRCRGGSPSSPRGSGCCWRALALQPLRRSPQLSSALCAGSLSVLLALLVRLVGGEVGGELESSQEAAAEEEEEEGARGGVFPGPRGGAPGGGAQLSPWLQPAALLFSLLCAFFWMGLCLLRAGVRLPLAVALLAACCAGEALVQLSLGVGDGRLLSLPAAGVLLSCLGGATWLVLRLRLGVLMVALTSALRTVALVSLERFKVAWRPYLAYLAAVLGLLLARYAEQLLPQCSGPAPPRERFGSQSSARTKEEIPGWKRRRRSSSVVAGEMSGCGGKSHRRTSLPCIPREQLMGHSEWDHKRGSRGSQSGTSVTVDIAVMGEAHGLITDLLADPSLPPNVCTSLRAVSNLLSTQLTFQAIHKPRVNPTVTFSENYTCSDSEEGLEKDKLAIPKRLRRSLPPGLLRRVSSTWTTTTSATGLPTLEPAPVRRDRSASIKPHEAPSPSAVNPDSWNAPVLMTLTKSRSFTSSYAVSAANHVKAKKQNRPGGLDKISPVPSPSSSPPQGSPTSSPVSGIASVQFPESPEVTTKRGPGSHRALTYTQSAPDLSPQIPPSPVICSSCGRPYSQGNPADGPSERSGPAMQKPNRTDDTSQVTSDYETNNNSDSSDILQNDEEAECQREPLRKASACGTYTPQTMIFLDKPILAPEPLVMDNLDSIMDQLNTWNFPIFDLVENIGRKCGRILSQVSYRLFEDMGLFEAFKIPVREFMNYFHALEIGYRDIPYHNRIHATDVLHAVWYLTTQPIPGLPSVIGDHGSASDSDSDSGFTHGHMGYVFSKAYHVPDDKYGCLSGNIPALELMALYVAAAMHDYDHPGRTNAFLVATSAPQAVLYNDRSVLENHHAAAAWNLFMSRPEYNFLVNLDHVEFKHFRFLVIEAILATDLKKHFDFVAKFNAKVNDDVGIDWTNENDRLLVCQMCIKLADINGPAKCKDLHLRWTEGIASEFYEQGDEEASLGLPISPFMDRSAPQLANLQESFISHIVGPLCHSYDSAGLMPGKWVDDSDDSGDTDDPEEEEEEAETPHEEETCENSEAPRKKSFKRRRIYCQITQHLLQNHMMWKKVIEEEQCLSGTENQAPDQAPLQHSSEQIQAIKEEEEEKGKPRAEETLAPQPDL
The assay can be described thus: PDE III inhibitory activity (Test Example 1). It counts as biochemical. The following applies: for pIC50: Table I, PDE III partially purified from rat blood platelets, 3H-cAMP substrate; for PDE III inhibitory activity relative to that of the racemate: ratio to racemate. How it is done: as §1, §2

Where [3] appears, read: Table I, PDE IV partially purified from rat neutrophils.
[4] abbreviates: Table II, PDE IV from rat neutrophils.
Setting [5] is: listed as The compound of the present invention.

pIC50: −log10 of the molar value.

Turning to `COc1ccc(NC2=C(C)C(=O)CC2)cc1O[C@H]1C[C@@H]2CC[C@H]1C2` [(+)-isomer, (+)-3-[3-[(1S,2S,4R)-bicyclo[2.2.1]hept-2-yloxy]-4-methoxyanilino]-2-methyl-2-cyclopenten-1-one], in the assay with Type IV PDE [1], the “selectivity with respect to PDE IV” value is recorded as “low”. Further, the pIC50 (usually −log10 of the IC50, conventionally taken in molar units) with Type IV PDE [2] (setting [3]) was 6.44; in the assay with Type IV PDE [2] (setting [4]) it was 6.44; against Type III PDE, 5.80. In addition, the “PDE IV inhibitory activity relative to that of the racemate” value with Type IV PDE [2] is reported as “about ¾”. Also, the “PDE III inhibitory activity relative to that of the racemate” value on Type III PDE was “twice or more of that of the racemate”.
Regarding `COc1ccc(NC2=C(C)C(=O)CC2)cc1O[C@@H]1C[C@H]2CC[C@@H]1C2` (racemic) [(±)-isomer, (±)-3-[3-[(1RS,2RS,4SR)-bicyclo[2.2.1]hept-2-yloxy]-4-methoxyanilino]-2-methyl-2-cyclopenten-1-one, reference compound], the pIC50 in the assay with Type IV PDE [2] (setting [3]) is 6.57; in the assay on Type IV PDE [2] (setting [4]) it was 6.57; against Type III PDE, 5.41.
As to `COc1ccc(NC2=C(C)C(=O)CC2)cc1O[C@@H]1C[C@H]2CC[C@@H]1C2` [(−)-isomer, (−)-3-[3-[(1R,2R,4S)-bicyclo[2.2.1]hept-2-yloxy]-4-methoxyanilino]-2-methyl-2-cyclopenten-1-one], the “selectivity with respect to PDE IV” value in the assay with Type IV PDE [1] was “high”. Also, the values for the pIC50 with Type IV PDE [2] (setting [3]), with Type IV PDE [2] (setting [4]) and against Type III PDE were 6.92, 6.92 and 5.04, respectively. In addition, the results for the “PDE IV inhibitory activity relative to that of the racemate” value in the assay with Type IV PDE [2] and with Type IV PDE [2] (setting [5]) were “about twice that of the racemate” and “at least two times that of a racemate”, respectively. The “PDE III inhibitory activity relative to that of the racemate” value at Type III PDE was “less than half of that of the racemate”; on Type III PDE (setting [5]) it was “less than ½”.
